This note sets out measurements from article PMC10823733, “Promising antibacterial efficacy of arenicin peptides against the emerging opportunistic pathogen Mycobacterium abscessus” (Journal of Biomedical Science, 2024).

Like-named read-outs stand apart in the source and are kept apart here. Positions of bridges follow the written chain, without caps; N, C: chain ends. Non-standard residues stand in square brackets, D forms with d. Residues, ends and D or L forms follow the SMILES beside them. Abu = CC[C@H](N)C(=O)O

Series [1] concerns M. abscessus CIP 104536 T S variant. The series is described as follows: microbe, parasite or virus in culture. Type of series: cell-based, Mycobacterium abscessus. Here is the method:
(§1) Mycobacterium abscessus S and R strains (CIP 104536^ T) were grown in Middlebrook 7H9 medium supplemented with 0.05% (v/v) Tween 80, 0.2% (v/v) glycerol and 10% (v/v) oleic acid–albumin–dextrose–catalase (OADC enrichment; BD Difco) (7H9-S^OADC) at 37 °C under stirring (200 rpm). We used Ar-1 (RWC^3VYAYVRVRGVLVRYRRC^20W) and Ar-1-Abu, in which the cysteines in position 3 and 20 were replaced by alpha-amino-n-butyric acid (Abu) residues. We also tested Ar-2 (RWC^3VYAYVRIRGVLVRYRRC^20W), Ar-2-Abu (cysteines 3 and 20 replaced), Ar-3 (GFC^3WYVC^7VYRNGVRVC^16YRRC^20N), Ar-3-Abu (all four cysteines were replaced by Abu), Ar-3(3–20) (cysteines 7 and 16 replaced), and Ar-3(7–16) (cysteines 3 and 20 replaced). All arenicins and arenicin-Abu derivatives were obtained from GenScript (Piscataway, NJ, USA) with purity higher than 95%.
(§2) For determining the antimicrobial activity of the different peptides, the Middlebrook 7H9 broth microdilution method was used in sterile 96-well flat-bottom Greiner Bio-One polypropylene microplates with lid (Thermo Fisher Scientific) using the resazurin microtiter assay (REMA). Briefly, Mycobacterium abscessus was cultured up to mid log-phase (OD600 ~ 1.5–2) and diluted to a cell density of 5 × 10^6 cells/mL in 7H9-S^OADC. Then, 100 µL of this above inoculum was distributed to each well containing serial two-fold dilutions of arenicin, arenicin derivative or controls to a final volume of 200 µL. Growth controls containing no peptide (i.e., bacteria only = B), inhibition controls containing 50 µg/mL kanamycin (Euromedex, Souffelweyersheim, France) and sterility controls (i.e., medium only) without bacteria were included. After 5 days incubation at 37° C in a humidity chamber to prevent evaporation, 20 µL of a 0.025% (w/v) resazurin solution was added to each well. The microplate was re-incubated until appearance of a color change from blue to pink in the control well (i.e., bacteria without antibiotics). Fluorescence of the metabolite resorufin (λex/λem = 530/590 nm) was measured using a Tecan Spark 10 M ™ multimode microplate reader (Tecan Group Ltd, France). Relative fluorescence units (RFU) were defined as: RFU% = (test well FU/mean FU of control B wells) × 100. MIC50 and MIC90 values were determined by fitting the RFU% sigmoidal dose–response curves in Kaleidagraph 4.2 software (Synergy Software, Reading, PA). The concentration of peptide leading to 50% and 90% inhibition of M. abscessus growth was defined as the MIC50 and MIC90, respectively. All experiments were performed independently at least three times.

The test system of series [2] is M. abscessus CIP 104536 T R variant. The series is described as follows: microbe, parasite or virus in culture. It is filed as cell-based, Mycobacterium abscessus. The procedure:
as §1, §2

Series [3] in a line: Cytotoxic assay on human cells (resazurin). It is filed as cell-based. Conditions: A498, 48 h exposure. Here is the method:
(§3) The toxicity of each peptide was evaluated on human cell lines using a resazurin assay as previously described. Human lung epithelial cells BEAS-2B (ATCC CRL-9609), liver cells HepG2 (ATCC HB-8065), and kidney cells A498 (ATCC HTB-44) were used. All cells were cultured in Dulbecco's modified essential medium (DMEM) supplemented with 10% heat-inactivated fetal calf serum (FBS, Thermo Fisher Scientific), and 1% L-glutamine (Thermo Fisher Scientific) (DMEM^FBS) at 37 °C in a 5% CO2 incubator to subconfluent concentrations. Cells were detached with trypsin–EDTA solution (Thermo Fisher Scientific), and around 1 × 10^4 cells/well were seeded in 96-well flat-bottom microplates (Greiner Bio-One) with a lid, and cultured for additional 48–72 h at 37 °C and 5% CO2 until cell confluence. The medium was removed, and 100 µL of serial two-fold dilutions of the peptides in DMEM^FBS were added to each well. Following a 48 h-incubation period at 37 °C and 5% CO2, cell viability was evaluated using the resazurin assay as described above. Fluorescence of the resazurin metabolite resorufin (λex/λem = 530/590 nm) was measured after 2 h incubation at 37 °C and 5% CO2 in the dark, with a microplate reader (Biotek, Synergy Mx, Colmar, France). The cytotoxic concentration of peptide leading to 50% cell death as compared to the control was defined as the CC50, and was determined by fitting the RFU% sigmoidal dose–response curves in Kaleidagraph 4.2 software (Synergy Software). All experiments were conducted in triplicate.

The subject of a further series is human erythrocytes. Type of series: cell-based. Conditions: for HC10 / HC50: red cells of human, 1 h. Here is the method:
The hemolytic activity of each peptide was determined as previously described. Briefly, human erythrocytes (red blood cells, hRBC; Divbioscience, Ulvenhout, Netherlands) were washed 2-times with sterile phosphate buffered saline (PBS; Thermo Fisher Scientific) and pelleted by centrifugation at 800 rpm for 5 min; then resuspended in DMEM^FBS to a final erythrocyte concentration of 8% (v/v). Then, 100 µL of this hRBC solution was distributed to each well of sterile 96-well flat-bottom microplates (Greiner Bio-One) containing serial two-fold dilutions of arenicin, arenicin-Abu derivative or controls in DMEM^FBS to a final volume of 200 µL. After 1 h incubation at 37 °C, microplates were centrifuged at 800 rpm for 5 min. Then, 100 µL of supernatant were carefully transferred to a new 96-well microplate, and OD405 corresponding to the release of hemoglobin was measured using a microplate reader (Biotek, Synergy Mx, Colmar, France). DMEM^FBS and Triton-X100 at 0.1% (v/v) were used as negative (i.e., 0% hemolysis) and positive (i.e., 100% hemolysis) controls, respectively. The concentration of peptide leading to 10% and 50% of hemolysis compared to the positive control was defined as the HC10 and HC50, respectively, and was determined by fitting the dose–response curves in Kaleidagraph 4.2 software (Synergy Software). All experiments were done in triplicate.

The format of series [4] is cell-based, human. The procedure: as §3
The format of series [5] is cell-based, human. The procedure:
as §3
The source holds these as a separate data set.

Where [6] appears, read: Mycobacteroides abscessus, CIP104536, 120 h.
[7] abbreviates: S variant, 50% inhibition of in vitro growth, REMA, 5 days.
Where [8] appears, read: S variant, 90% inhibition of in vitro growth, REMA, 5 days.

`NCC[C@H](O)C(=O)N[C@@H]1C[C@H](N)[C@@H](O[C@H]2O[C@H](CN)[C@@H](O)[C@H](O)[C@H]2O)[C@H](O)[C@H]1O[C@H]1O[C@H](CO)[C@@H](O)[C@H](N)[C@H]1O` [AMK, amikacin, reference compound]: the results for the MIC50 in series [1] (setting [6]) and in series [2] (setting [6]) were 3.9 ± 0.19 µM and 7.4 ± 0.26 µM, respectively. Further, the MIC90 in series [1] (setting [6]) was 5.8 µM; in series [2] (setting [6]), 10.1 µM.
On to `CC[C@@H]1NC(=O)[C@H](C(C)C)NC(=O)[C@H](CCCNC(=N)N)NC(=O)[C@H](C(C)C)NC(=O)CNC(=O)[C@H](CC(N)=O)NC(=O)[C@H](CCCNC(=N)N)NC(=O)[C@H](Cc2ccc(O)cc2)NC(=O)[C@H](C(C)C)NC(=O)[C@H](CC)NC(=O)[C@H](C(C)C)NC(=O)[C@H](Cc2ccc(O)cc2)NC(=O)[C@H](Cc2c[nH]c3ccccc23)NC(=O)[C@@H](NC(=O)[C@H](Cc2ccccc2)NC(=O)CN)CSSC[C@@H](C(=O)N[C@@H](CC(N)=O)C(=O)O)NC(=O)[C@H](CCCNC(=N)N)NC(=O)[C@H](CCCNC(=N)N)NC(=O)[C@H](Cc2ccc(O)cc2)NC1=O` [Ar-3(3–20)] (H-GFCWYV[Abu]VYRNGVRV[Abu]YRRCN-OH; disulfide 3-20), for which, in series [1] (setting [7]), the MIC50 was 48.3 µM. Besides, the MIC90 in series [1] (setting [8]) is given as above 100 µM. For the same molecule, the CC50 is 42 ± 1.3 µM in series [3], above 100 µM in series [4] and above 100 µM in series [5]. Also, in the series on human erythrocytes, the “hemolytic activity on human erythrocytes (in words, considering HC10)” value was “totally inactive”. The HC10 in the series on human erythrocytes was above 100 µM. For the same molecule, in the series with human erythrocytes, the HC50 is reported as above 100 µM.
On to `CC[C@H](NC(=O)[C@H](CCCNC(=N)N)NC(=O)[C@H](CCCNC(=N)N)NC(=O)[C@H](Cc1ccc(O)cc1)NC(=O)[C@H](CC)NC(=O)[C@@H](NC(=O)[C@H](CCCNC(=N)N)NC(=O)[C@@H](NC(=O)CNC(=O)[C@H](CC(N)=O)NC(=O)[C@H](CCCNC(=N)N)NC(=O)[C@H](Cc1ccc(O)cc1)NC(=O)[C@@H](NC(=O)[C@H](CC)NC(=O)[C@@H](NC(=O)[C@H](Cc1ccc(O)cc1)NC(=O)[C@H](Cc1c[nH]c2ccccc12)NC(=O)[C@H](CC)NC(=O)[C@H](Cc1ccccc1)NC(=O)CN)C(C)C)C(C)C)C(C)C)C(C)C)C(=O)N[C@@H](CC(N)=O)C(=O)O` [Ar-3-Abu] (H-GF[Abu]WYV[Abu]VYRNGVRV[Abu]YRR[Abu]N-OH), for which the MIC50 in series [1] (setting [7]) is listed as above 100 µM; in series [2] (R variant, 50% inhibition of in vitro growth, REMA, 5 days), above 100 µM. Further, the MIC90 in series [1] (setting [8]) is on record as above 100 µM; in series [2] (R variant, 90% inhibition of in vitro growth, REMA, 5 days), above 100 µM. Also, the results for the CC50 in series [3], in series [4] and in series [5] were 36.6 ± 0.9 µM, above 100 µM and above 100 µM, respectively. Further, in the series with human erythrocytes, the HC10 is on record as 39.3 ± 3.2 µM. In addition, in the series on human erythrocytes, the HC50 is above 100 µM.
On to `CC(C)[C@@H]1NC(=O)CNC(=O)[C@H](CC(N)=O)NC(=O)[C@H](CCCNC(=N)N)NC(=O)[C@H](Cc2ccc(O)cc2)NC(=O)[C@H](C(C)C)NC(=O)[C@@H]2CSSC[C@H](NC(=O)[C@H](C(C)C)NC(=O)[C@H](CCCNC(=N)N)NC1=O)C(=O)N[C@@H](Cc1ccc(O)cc1)C(=O)N[C@@H](CCCNC(=N)N)C(=O)N[C@@H](CCCNC(=N)N)C(=O)N[C@H](C(=O)N[C@@H](CC(N)=O)C(=O)O)CSSC[C@H](NC(=O)[C@H](Cc1ccccc1)NC(=O)CN)C(=O)N[C@@H](Cc1c[nH]c3ccccc13)C(=O)N[C@@H](Cc1ccc(O)cc1)C(=O)N[C@@H](C(C)C)C(=O)N2` [Ar-3] (H-GFCWYVCVYRNGVRVCYRRCN-OH; disulfide 3-20, 7-16), for which, in series [1] (setting [7]), the MIC50 is 5.3 µM. Moreover, the MIC90 in series [1] (setting [8]) is reported as 12.2 µM. The half-maximal cytotoxic concentration (CC50) was 46.7 ± 1.7 µM in series [3], above 100 µM in series [4] and above 100 µM in series [5]. Further, the HC10 in the series with human erythrocytes came to 30.3 ± 2.5 µM. Also, the HC50 with human erythrocytes is above 100 µM.
